Values of other authors as cited in US20240189229A1, “LIQUID PHARMACEUTICAL COMPOSITIONS OF BACLOFEN FOR ORAL ADMINISTRATION” (ANI Pharmaceuticals, Inc., priority 2022, published 2024).
Read-outs that look alike come from different tables or passages of the source.

In the case of NCC(CC(=O)O)c1ccc(Cl)cc1 (centres unmarked) [Baclofen, 4-amino-3-(4-chlorophenyl)-butanoic acid], the “Concentration of baclofen obtained by dissolving” value (aqueous solution of 0.1N HCl (Ahuja 1985)) is given as “greater than 20 mg/mL”, the “Concentration of baclofen obtained by dissolving” value (aqueous solution of 0.1N NaOH (Ahuja 1985)) is given as “greater than 20 mg/mL” and the Solubility in chloroform (chloroform) is given as “insoluble”. For the same compound, the Solubility in methanol (methanol) was “very slightly soluble” and the Solubility in water (water) was “slightly soluble”.
